Measured values from PMC2929395 (Chemistry & biology, 2010).
Changes are numbered by the printed parent chain. Entries after “also recorded” stand apart in the source; their conditions may differ.

Tests used:
PanK3 [1] = target: T1, PanK3 (Homo sapiens, UniProt Q9H999); assay: PanK3 radiochemical; format: biochemical; details: for Km: read-out: KM for PanK3, wild-type PanK3, substrate; for % Activation RA: % of maximal activation of PanK3 with respect to the DMSO control, radioactive assay; for Reversal of / competition with acetyl-CoA inhibition of PanK3: in the presence of acetyl-CoA, data not shown
T1 sequence (Q9H999 whole entry): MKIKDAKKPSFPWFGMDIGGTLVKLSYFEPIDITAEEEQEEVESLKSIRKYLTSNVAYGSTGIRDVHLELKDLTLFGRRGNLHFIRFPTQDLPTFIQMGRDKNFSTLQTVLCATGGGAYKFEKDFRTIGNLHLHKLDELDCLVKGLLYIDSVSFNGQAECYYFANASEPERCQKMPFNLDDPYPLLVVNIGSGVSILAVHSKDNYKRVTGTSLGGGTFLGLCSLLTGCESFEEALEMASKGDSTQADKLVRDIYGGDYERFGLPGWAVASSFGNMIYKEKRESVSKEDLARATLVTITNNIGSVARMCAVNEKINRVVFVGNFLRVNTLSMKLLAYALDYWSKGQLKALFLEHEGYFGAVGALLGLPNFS

PanK3(S195V) = target: T2, PanK3(S195V) (Homo sapiens, UniProt Q9H999, S195V); assay: PanK3; format: biochemical; details: for Km: read-out: KM for PanK3(S195V), substrate; for Inhibition of PanK3(S195V): radioactive assay, 800 ng PanK3(S195V)
T2 sequence (Q9H999 1-370 S195V): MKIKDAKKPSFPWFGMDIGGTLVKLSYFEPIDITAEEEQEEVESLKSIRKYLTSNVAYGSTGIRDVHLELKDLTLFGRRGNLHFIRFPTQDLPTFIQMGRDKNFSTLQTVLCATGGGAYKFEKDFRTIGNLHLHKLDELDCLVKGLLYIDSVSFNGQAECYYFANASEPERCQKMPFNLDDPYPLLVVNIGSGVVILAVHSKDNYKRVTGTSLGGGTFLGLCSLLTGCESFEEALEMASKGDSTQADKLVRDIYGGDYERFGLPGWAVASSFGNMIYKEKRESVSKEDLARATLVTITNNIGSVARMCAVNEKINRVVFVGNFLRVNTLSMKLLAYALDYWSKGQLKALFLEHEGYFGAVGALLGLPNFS

PanK3 [2] = target: T1, PanK3; assay: PanK3 high-throughput screen, two-step luminescence; format: biochemical
S. aureus PanK (SaPanK) = S. aureus PanK (SaPanK) (Staphylococcus aureus, UniProt Q2FWC7); assay: SaPanK radiochemical assay; format: biochemical; details: radioactive assay, 10 ng SaPanK
Sequence of S. aureus PanK (SaPanK) (Q2FWC7 whole entry, canonical isoform): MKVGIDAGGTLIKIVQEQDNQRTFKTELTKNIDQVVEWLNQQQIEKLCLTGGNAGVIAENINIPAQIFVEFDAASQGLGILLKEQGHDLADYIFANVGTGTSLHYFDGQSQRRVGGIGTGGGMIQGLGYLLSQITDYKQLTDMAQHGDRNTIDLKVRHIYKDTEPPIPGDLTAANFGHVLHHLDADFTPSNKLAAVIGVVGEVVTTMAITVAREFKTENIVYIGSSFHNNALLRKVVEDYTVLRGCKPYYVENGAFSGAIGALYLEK

PanK2 = target: T3, PanK2 (Homo sapiens, UniProt Q9BZ23); assay: Isoform selectivity, purified PanK2; format: biochemical; details: compared to PanK3
T3 sequence (Q9BZ23 141-570 limits assumed): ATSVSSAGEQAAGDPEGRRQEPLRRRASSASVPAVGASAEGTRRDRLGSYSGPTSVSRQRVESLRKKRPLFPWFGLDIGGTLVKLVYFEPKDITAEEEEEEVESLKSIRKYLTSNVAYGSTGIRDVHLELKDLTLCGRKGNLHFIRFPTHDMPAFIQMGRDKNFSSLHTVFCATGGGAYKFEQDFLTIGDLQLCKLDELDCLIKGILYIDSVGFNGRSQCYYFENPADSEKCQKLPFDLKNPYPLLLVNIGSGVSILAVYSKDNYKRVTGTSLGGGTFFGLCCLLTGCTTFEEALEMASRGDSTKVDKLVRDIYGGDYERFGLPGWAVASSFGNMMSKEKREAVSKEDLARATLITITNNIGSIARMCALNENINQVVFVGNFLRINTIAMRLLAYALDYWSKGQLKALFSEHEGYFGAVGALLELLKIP

HepG2/C3A cells = assay: CoA biosynthesis, [3H]pantothenate incorporation into CoA in HepG2/C3A cells; format: cell-based, human; details: 24 h labeling, relative to DMSO control
PanK1β = target: T4, PanK1β (Homo sapiens, UniProt Q8TE04); assay: Isoform selectivity, purified PanK1β; format: biochemical; details: compared to PanK3
T4 sequence (Q8TE04 1-373 isoform Q8TE04-2): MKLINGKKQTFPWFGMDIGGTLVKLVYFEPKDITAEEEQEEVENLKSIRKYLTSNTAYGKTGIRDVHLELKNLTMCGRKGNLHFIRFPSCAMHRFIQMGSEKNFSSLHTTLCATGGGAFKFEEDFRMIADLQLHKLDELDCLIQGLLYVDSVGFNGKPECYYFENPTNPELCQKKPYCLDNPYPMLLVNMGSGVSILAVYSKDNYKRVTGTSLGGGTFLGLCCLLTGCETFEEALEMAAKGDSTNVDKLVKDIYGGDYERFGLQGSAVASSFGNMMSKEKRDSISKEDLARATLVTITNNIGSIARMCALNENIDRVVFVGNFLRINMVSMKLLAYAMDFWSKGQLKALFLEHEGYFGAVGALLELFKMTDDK

PanK3 [3] = target: T1, PanK3; assay: TNP-ATP fluorescent ATP analog binding to PanK3
PanK3(A267F) = target: T5, PanK3(A267F) (Homo sapiens, UniProt Q9H999, A267F); assay: TNP-ATP binding to PanK3
T5 sequence (Q9H999 1-370 A267F): T2 sequence (Q9H999 1-370 S195V) with V195S, A267F

PanK3(A269F) = target: T6, PanK3(A269F) (Homo sapiens, UniProt Q9H999, A269F); assay: TNP-ATP binding to PanK3
T6 sequence (Q9H999 1-370 A269F): T2 sequence (Q9H999 1-370 S195V) with V195S, A269F

PanK3(R207A) = target: T7, PanK3(R207A) (Homo sapiens, UniProt Q9H999, R207A); assay: TNP-ATP binding to PanK3
T7 sequence (Q9H999 1-370 R207A): T2 sequence (Q9H999 1-370 S195V) with V195S, R207A

[4] = HTS platform, 10-point concentration series in triplicate, rounded to nearest 0.1 µM

## Nc1ncnc2c1ncn2[C@@H]1O[C@H](COP(=O)(O)OP(=O)(O)OP(=O)(O)O)[C@@H](O)[C@H]1O [ATP]
PanK3 [1]
  Km: 311 ± 53 µM
PanK3(S195V)
  Km: 191 ± 27 µM

## Cc1cnc(C(=O)NCCc2ccc(S(=O)(=O)NC(=O)NC3CCCCC3)cc2)cn1 [Glipizide]
PanK3 [2]
  IC50: 5.2 µM
PanK3 [1]
  IC50: 8.5 µM

## COc1ccc(Cl)cc1C(=O)NCCc1ccc(S(=O)(=O)NC(=O)NC2CCCCC2)cc1 [Glyburide]
S. aureus PanK (SaPanK)
  Inhibition of SaPanK: refractory; also recorded: not inhibited
PanK3 [2]
  IC50: 6.8 µM
PanK2
  Effect on PanK2 activity: less sensitive to glyburide than PanK3
HepG2/C3A cells
  Effect on CoA biosynthesis (pantothenate incorporation into CoA): inhibited cellular CoA biosynthesis to a lesser extent than MCC-555
PanK3 [1]
  IC50: 8.5 µM
  Kinetic mechanism of PanK3 inhibition with respect to ATP: uncompetitive
PanK1β
  Effect on PanK1β activity: activated rather than inhibited
PanK3(S195V)
  Inhibition of PanK3(S195V): refractory to inhibition

## O=C1NC(=O)C(Cc2ccc3cc(OCc4ccccc4F)ccc3c2)S1 (stereo not drawn) [MCC-555]
S. aureus PanK (SaPanK)
  Inhibition of SaPanK: refractory; also recorded: not inhibited
PanK2
  Effect on PanK2 activity: inhibited
HepG2/C3A cells
  Effect on CoA biosynthesis (pantothenate incorporation into CoA): inhibited pantothenate incorporation into CoA
PanK3 [1]
  Kinetic mechanism of PanK3 inhibition with respect to ATP: uncompetitive
PanK1β
  Effect on PanK1β activity: inhibited
PanK3(S195V)
  Inhibition of PanK3(S195V): refractory to inhibition

## CCCCCCCC/C=C\CCCCCCCC(=O)O[C@H](CC(=O)[O-])C[N+](C)(C)C [Oleoyl-carnitine]
HepG2/C3A cells
  Effect on CoA biosynthesis (pantothenate incorporation into CoA): activators of CoA biosynthesis
PanK3 [1]
  % Activation RA: 140%
  Reversal of / competition with acetyl-CoA inhibition of PanK3: Competition between acetyl-CoA and oleoyl-carnitine was also observed

## CCCCCCCC/C=C\CCCCCCCC(=O)NCCO [Oleoylethanolamide]
PanK3 [2]
  EC50: 7.9 µM
PanK3 [1]
  EC50: 500 nM
  % Activation RA: 120%

## CN(CCOc1ccc(CC2SC(=O)NC2=O)cc1)c1ccccn1 (stereo not drawn) [Rosiglitazone]
HepG2/C3A cells
  Effect on CoA biosynthesis (pantothenate incorporation into CoA): inhibited pantothenate incorporation into CoA

## Nc1ncnc2c1ncn2[C@@H]1O[C@H](COP(=O)(O)OP(=O)(O)OP(=O)(O)O)[C@H]2OC3(O[C@H]21)C([N+](=O)[O-])=CC(=[N+]([O-])[O-])C=C3[N+](=O)[O-] (stereo partly drawn) [TNP-ATP]
PanK3 [3]
  Kd: 3.6 ± 0.9 µM
PanK3(A267F)
  Kd: 3.1 ± 0.8 µM
PanK3(A269F)
  Kd: 5.4 ± 0.8 µM
PanK3(R207A)
  Kd: 3 ± 0.3 µM

## CC/C(=C(\c1ccccc1)c1ccc(OCCN(C)C)cc1)c1ccccc1 [Tamoxifen]
PanK3 [2]
  EC50: 3.4 µM
PanK2
  Effect on PanK2 activity: not affected
HepG2/C3A cells
  Effect on CoA biosynthesis (pantothenate incorporation into CoA): most potent activator of CoA biosynthesis in cells
PanK3 [1]
  EC50: 4000 nM
  % Activation RA: 140%
  Reversal of / competition with acetyl-CoA inhibition of PanK3: reversed the inhibition of PanK3 by acetyl-CoA
PanK1β
  Effect on PanK1β activity: inhibited

## CC(=O)SCCNC(=O)CCNC(=O)[C@H](O)C(C)(C)COP(=O)(O)OP(=O)(O)OC[C@H]1O[C@@H](n2cnc3c(N)ncnc32)[C@H](O)[C@@H]1OP(=O)(O)O [acetyl-CoA]
PanK3(S195V)
  Inhibition of PanK3(S195V): refractory to inhibition

## NS(=O)(=O)c1cc(C(=O)O)c(NCc2ccco2)cc1Cl [furosemide]
PanK3 [2]; screened at 12 µM, cut-off >25% activation
  Activator hit in primary HTS: did not make the cutoff for an activator of PanK3

## CC(C)(CO)[C@@H](O)C(=O)NCCC(=O)NCCS [pantetheine]
PanK3 [1]
  Km: 23 ± 2 µM
PanK3(S195V)
  Km: 59 ± 3 µM

## Psi-Rhodomyrtoxin
PanK3 [2]; [4]
  IC50: 1.6 µM

## Tyrphostin AG 808
PanK3 [2]; [4]
  IC50: 9 µM
